Experimental data from ChEMBL document CHEMBL1146907, “New, potent P1/P2-morpholinone-based HIV-protease inhibitors” (Bioorg Med Chem Lett, 2006).

Molecular target: Human immunodeficiency virus type 1 protease (Human immunodeficiency virus 1, UniProt Q72874)
Assay: Inhibition of HIV protease

Q: Which Ki does the source give for `COc1ccc(S(=O)(=O)N(CC2CCCC2)C[C@@H](O)CN2C(=O)[C@H](Cc3cccc(C#N)c3)OC[C@@H]2Cc2ccccc2)cc1` here?
A: The Ki was 490 nM.

Q: Which Ki does the source give for `COc1ccc(S(=O)(=O)N(CC2CCCC2)C[C@@H](O)CN2C(=O)[C@@H](CCN)OC[C@@H]2Cc2ccccc2)cc1` here?
A: The Ki was 600 nM.

Q: With `COc1ccc(S(=O)(=O)N(CC2CCCC2)C[C@@H](O)CN2C(=O)C3(CC3)OC[C@@H]2Cc2ccccc2)cc1` as the molecule, how does the Ki read?
A: Its Ki is 9 nM.

Q: `COc1ccc(S(=O)(=O)N(CC2CCCC2)C[C@@H](O)CN2C(=O)[C@@H](Cc3ccccc3)OC[C@@H]2Cc2ccccc2)cc1` was tested. Which Ki did it give?
A: The Ki was 35 nM.

Q: How did the Ki turn out when `COc1ccc(S(=O)(=O)N(CC2CCCC2)C[C@@H](O)CN2C(=O)C3(CCCCC3)OC[C@@H]2Cc2ccccc2)cc1` was run?
A: The Ki was 2 nM.

Q: For `COc1ccc(S(=O)(=O)N(CC2CCCC2)C[C@@H](O)CN2C(=O)[C@@H](CCC(N)=O)OC[C@@H]2Cc2ccccc2)cc1`, which Ki is on record?
A: The Ki was 49 nM.

Q: For `COc1ccc(S(=O)(=O)N(CC2CCCC2)C[C@@H](O)CN2C(=O)[C@H](C)OC[C@@H]2Cc2ccccc2)cc1`, which Ki is on record?
A: Its Ki is 38 nM.

Q: How did the Ki turn out when `C=CC[C@@H]1OC[C@H](Cc2ccccc2)N(C[C@H](O)CN(CC2CCCC2)S(=O)(=O)c2ccc(OC)cc2)C1=O` was run?
A: The Ki was 270 nM.

Q: For `COc1ccc(S(=O)(=O)N(CC2CCCC2)C[C@@H](O)CN2C(=O)[C@@H](CCN=[N+]=[N-])OC[C@@H]2Cc2ccccc2)cc1`, which Ki is on record?
A: Its Ki is 81 nM.

Q: With `COc1ccc(S(=O)(=O)N(CC2CCCC2)C[C@@H](O)CN2C(=O)[C@@H](CCC#N)OC[C@@H]2Cc2ccccc2)cc1` as the molecule, how does the Ki read?
A: The Ki was 11 nM.

Q: `COc1ccc(S(=O)(=O)N(CC2CCCC2)C[C@@H](O)CN2C(=O)[C@@H](CCCN)OC[C@@H]2Cc2ccccc2)cc1` was tested. Which Ki did it give?
A: The Ki was 5800 nM.

Q: `COc1ccc(S(=O)(=O)N(CC2CCCC2)C[C@@H](O)CN2C(=O)[C@@H](Cc3cccc(C#N)c3)OC[C@@H]2Cc2ccccc2)cc1` was tested. Which Ki did it give?
A: Its Ki is 55 nM.

Q: For `COc1ccc(S(=O)(=O)N(CC2CCCC2)N2C(=O)C3(CCOCC3)OC[C@@H]2Cc2ccccc2)cc1`, which Ki is on record?
A: Its Ki is 23 nM.

Q: With `COc1ccc(S(=O)(=O)N(CC2CCCC2)C[C@@H](O)CN2C(=O)[C@@H](CCO)OC[C@@H]2Cc2ccccc2)cc1` as the molecule, how does the Ki read?
A: Its Ki is 30 nM.

Q: With `C=CC[C@H]1OC[C@H](Cc2ccccc2)N(C[C@H](O)CN(CC2CCCC2)S(=O)(=O)c2ccc(OC)cc2)C1=O` as the molecule, how does the Ki read?
A: The Ki was 2 nM.
